The results in this text go back to ChEMBL document CHEMBL5214920, “Emerging impact of triazoles as anti-tubercular agent” (Eur J Med Chem, 2022).

Each structure is given as a SMILES string. In brackets after ≈: the same amount, converted by molar mass.

For one experiment, the system named is Mycobacterium tuberculosis. Description: Antitubercular activity against multi-drug-resistant Mycobacterium tuberculosis assessed as bacterial growth inhibition measured after 7 days by direct susceptibility assay. It counts as functional. To be noted: 168 h, time 7 day.
Take `O=C(O)c1cn(C2CC2)c2cc(N3CCN(Cc4cn(CCN5C(=O)Cc6ccccc65)nn4)CC3)c(F)cc2c1=O`: the minimal inhibitory concentration (MIC) (usually the lowest concentration found to suppress growth) is 0.25 µg/mL (≈ 0.437 µM). For `CO[C@H]1/C=C/O[C@@]2(C)Oc3c(C)c(O)c4c(O)c(c(/C=N/N5CCN(C)CC5)c(O)c4c3C2=O)NC(=O)/C(C)=C\C=C\[C@H](C)[C@H](O)[C@@H](C)[C@@H](O)[C@@H](C)[C@H](OC(C)=O)[C@@H]1C` [RIFAMPIN], the minimum inhibitory concentration (MIC) was found to be 64 µg/mL (≈ 77.8 µM). Same read-out and setting: the value for `CO/N=C1/C(=O)C(CCOCCOCCOCCn2cc(CN3C(=O)/C(=N/OC)c4cc(F)ccc43)nn2)c2ccccc21` (configuration not stated) was 64 µg/mL (≈ 105 µM). `NNC(=O)c1ccncc1` [ISONIAZID]: the MIC stood at 512 µg/mL (≈ 3730 µM). Same read-out and setting: the value for `COc1c(N2CCNCC2)c(F)cc2c(=O)c(C(=O)O)cn(C3CC3)c12` was 2 µg/mL (≈ 5.53 µM); that for `O=C(O)c1cn(C2CC2)c2cc(N3CCNCC3)c(F)cc2c1=O` [CIPROFLOXACIN] was 4 µg/mL (≈ 12.1 µM).

The next experiment has as its system Mycobacterium tuberculosis. Put plainly: Potency index, ratio of isoniazid MIC to test compound MIC for antitubercular activity against multi-drug-resistant Mycobacterium tuberculosis.
Settings: not given
The format is functional.
As for `CO/N=C1/C(=O)C(CCOCCOCCOCCn2cc(CN3C(=O)/C(=N/OC)c4cc(F)ccc43)nn2)c2ccccc21` (configuration not stated), the Ratio is reported as 8.
